The results in this text go back to patent publication US20080255238A1, “COMPOSITION CONTAINING A THIOUREA DERIVATIVE FOR PREVENTING OR TREATING PRURITIC OR IRRITANT SKIN DISEASES” (AMOREPACIFIC CORPORATION, priority 2004, published 2008).

Holding throughout (assay type): in vivo
Test [1] has as its system ICR mice. The test is described as follows: Itching induced by compound 48/80 (C48/80) in ICR mice, intradermal administration. Conditions: for % Inhibition (mean ± SE): scratching frequency over 60 min, C48/80 50 μg/mouse i.d., ICR mice. The source says:
Itching Induced by Compound 48/80 (C48/80) in ICR Mice
Intradermal Administration
ICR mice suffer from itching upon administration of histamines, and C48/80 (condensation product of N-methyl-p-methoxyphenethylamine with formaldehyde, Sigma, U.S.A.) is a substance that stimulates connective tissues and skin mast cells to release mediators, such as histamines, causing itching. C48/80 causes itching when intradermally administered to humans (Rukwied et al., 2000, Br. J. Pharmacol., 142, pp 1114-1120). In this experiment, ICR mice received C48/80 to induce itching. One day before the experiment, the rostral part of the skin on the back of male ICR mice (28˜32 g, 4˜11 mice/group) was clipped. After the drug (compound 1, 50 μl/mouse) was dissolved in hydroxypropyl-β-cyclodextrin (HP-β-CD; Mitsubishi Ltd., Japan) and C48/80 (50 μg/50 μl/mouse) was dissolved in a physiological saline solution, the solutions were simultaneously injected intradermally into the back skin of mice. Immediately after the injection, the mice were placed in a transparent cage and then the frequency of scratching of the injected site by the hind paws was counted for 60 minutes. The frequency of scratching in test groups administered with the drug was compared to that in a control group administered with C48/80 alone. The decrease in the frequency of scratching in the test groups was determined as an index of inhibitory effects on itching. The decrease in the frequency of scratching was expressed as a percentage of inhibition to determine inhibitory effects of each compound on itching.

Test [2] deals with ICR mice. As to the kind of experiment: Inhibition of skin irritation induced by tacrolimus in ICR mice. As to conditions: intradermal; for % Inhibition (mean ± SE): scratching frequency over 30 min, tacrolimus 50 μg/mouse i.d. From the text:
Inhibition of Skin Irritation Induced by Tacrolimus in ICR Mice
Subcutaneous Administration
Tacrolimus is an immunosuppressant widely used in liver and renal transplantation (Lawrence, 1998, Dermatol. Ther., 5, pp 74-84). Tacrolimus is currently used in the form of ointment for treating skin diseases, such as atopic dermatitis (Wollenberg et al., 2001, J. Allergy. Clin. Immunol., 107, pp 519-525), psoriasis (Nasr, 2000, Clin. Exp. Dermatol., 25, pp 250-254), allergic contact dermatitis (Lauerma et al., 1992, Lancet, 340, p 556), and the like. However, it was reported that tacrolimus enhances irritation in human models with irritant contact dermatitis (Fuchs et al., 2002, Contact dermatitis, 46, pp 290-294). It was reported that tacrolimus causes side effects, such as skin irritation, itching and erythema, in its initial stage of use (Gupta et al., 2002, JEADV, 16, pp 100-114; Gupta and Chow, 2003, JEADV, 17, pp 493-503). No experimental model of skin irritation by tacrolimus in animal experiments is currently known. Accordingly, tacrolimus as a skin-irritant substance was directly injected to ICR mice by intradermal injection, and then scratching behavior of the mice was observed. One day before the experiment, the rostral part of the skin on the back male ICR mice (30˜33 g, 10 mice/group) was clipped. After the drug (compound 1, 50 μl/mouse) was dissolved in 28% hydroxypropyl-β-cyclodextrin (HP-β-CD; Mitsubishi Ltd., Japan) and tacrolimus (50 μg/50 μl/mouse, Cipla, India) was dissolved in a physiological saline solution containing 5% ethanol and 5% Tween 80, the solutions were simultaneously injected intradermally into the back skin of mice. Immediately after the injection, the mice were placed in a transparent cage and then the frequency of scratching of the injected site by the hind paws was counted for 30 minutes. The frequency of scratching in test groups administered with the drug was compared to that in a group administered with tacrolimus alone. […] The decrease in the frequency of scratching was expressed as a percentage of inhibition to determine inhibitory effects of each compound on skin irritation.

A further test concerns BALB/C mice. The test is described as follows: Itching induced by compound 48/80 (C48/80) in BALB/C mice, oral administration. Conditions: scratching frequency over 30 min, C48/80 1 h after dosing, BALB/C mice. The source says: Itching Induced by Compound 48/80 (C48/80) in BALB/C Mice
The frequency of scratching induced by an itching-inducing substance varies depending on mouse strain. For example, it was reported that BALB/C mice are less sensitive to histamines and serotonin than ICR mice (Inagaki et al., 2001, Skin Pharmacol. Appl. Skin Physiol., 14, pp 87-96). […] In this experiment, BALB/C mice received C48/80 to induce itching. One day before the experiment, the rostral part of the skin on the back of BALB/C mice (19˜21 g, 6˜12 mice/group) was clipped. After compound 1 was dissolved in HP-β-CD, and compounds 2 and 3 were dissolved in a physiological saline solution containing 10% ethanol and 10% Tween 80, the solutions were orally administered (10 ml/kg) to the mice. One hour after the administration, C48/80 (50 μg/50 μl/mouse) was dissolved in a physiological saline solution and injected intradermally into the back skin of mice. Immediately after the injection, the mice were housed in a transparent cage and then the frequency of scratching of the injected site by the hind paws was counted for 30 minutes. The frequency of scratching in test groups administered with the drugs was compared to that in a control group administered with C48/80 alone. The decrease in the frequency of scratching in the test groups was determined as an index of inhibitory effects on itching. The decrease in the frequency of scratching was expressed as a percentage of inhibition to determine inhibitory effects of each compound on itching.

As to `CC(C)(C)c1ccc(CNC(=S)NCc2ccc(NS(C)(=O)=O)c(F)c2)cc1` [Compound 1, 1-(4-t-butylbenzyl)-3-(3-fluoro-4-methanesulfonylaminobenzyl)thiourea], the “inhibitory effects on itching (in words)” value in the test with ICR mice [1] (C48/80, ICR mice) is on record as “potent antipruritic effects in a dose-dependent manner”. In addition, the “% Inhibition (mean ± SE)” value in the test on ICR mice [1] (dose 0.03 mg/mouse) is listed as −6.51 ± 17.39%; with ICR mice [1] (dose 0.1 mg/mouse), 36.96 ± 13.44%; with ICR mice [1] (dose 0.3 mg/mouse) it was 44.11 ± 10.36%; in the test with ICR mice [1] (dose 1 mg/mouse), 69.03 ± 7.76%; in the test on ICR mice [2] (dose 0.1 mg/mouse), 33.74 ± 37.73%; in the test with ICR mice [2] (dose 0.3 mg/mouse) it was 52.03 ± 24.14%. Further, the “% Inhibition (mean ± SE)” value in the test on ICR mice [2] (dose 1 mg/mouse) is 106.91 ± 30.13%; in the test on BALB/C mice (dose 3 mg), −22.90 ± 13.19%; with BALB/C mice (dose 10 mg) it was 42.24 ± 24.48%; with BALB/C mice (dose 30 mg) it was 42.97 ± 7.13%; in the test with BALB/C mice (dose 100 mg), 54.11 ± 18.50%. Further, the “inhibitory effects on skin irritation (in words)” value with ICR mice [2] (tacrolimus) is “inhibitory effects on skin irritation in a dose-dependent manner”.
